Measured values from patent US20080081796A1, “TREATMENT OF MUCOSITIS” (priority 2002, published 2008).

Tested on: oral mucositis induced by acute radiation
Assay: oral mucositis induced by acute radiation in an animal model (Animal Study and Animal Study II)
Type: in vivo, Golden Syrian hamsters
Conditions: for severity of oral mucositis (average oral mucositis scores, FIG. 1): topical TID 0.25 ml to left cheek pouch, 40 Gy radiation on day 0, versus water control
Excerpt: The objective of this study was to evaluate the effect of the nucleoside derivative, 5′-adenosine-diphosphate ribose, when administered topically, on the frequency, severity and duration of oral mucositis induced by acute radiation in an animal model.
The animals in the study ([…] Golden Syrian hamsters, Charles River Lab., ages 5-6 weeks, approximately 90 g average body weight) were randomly and prospectively divided into three groups of eight animals each. The particular test material to be applied to the animal mucosa during the study essentially defined each group. The test materials were water (Group 1 control), ADP-ribose 100 μg/ml in water (Group 2) and ADP-ribose 500 μg/ml in water (Group 3).
Mucositis was induced in the animals with a standardized acute radiation protocol. A single dose of radiation (40 Gy/dose) was administered to each animal on day 0. Irradiation targeted the left buccal pouch mucosa at a rate of 121.5 cGy/minute. The left buccal pouch was everted, fixed and isolated using a lead shield. Prior to and following radiation on day 0, each animal was dosed with their respective test materials in the manner described below. Also, immediately prior to radiation, the buccal mucosa was everted and any excess test material solution was wiped away using a clean tissue or cotton swab.
The respective test materials were then applied topically TID to the irradiated mucosa of each animal on day 1 to day 20 of the study. To accomplish this, a tuberculin syringe without a needle, containing 0.25 ml of the test material, was inserted into the base of the left cheek pouch and the test material deposited accordingly. This was done TID (first between 8-9:00 am; second between […] and 1:00 pm; third between 4-6:00 pm). Any developing mucositis was evaluated and scored on alternate days from day 6-28. Each animal was also weighed and its survival recorded on day 1 to day 28.
During the study, each animal was tested for mucositis scores, weight change and survival. For the evaluation of mucositis, the animals were anesthetized with inhalation anesthetics, and the left pouch everted. The developing mucositis was scored visually by comparison to a validated photographic scale, ranging from 0 for normal, to 5 for severe ulceration (clinical scoring). In descriptive terms, this scale is defined in the following table:
A mucositis score of 1-2 represents a mild stage of the disease. A score of 3-5 indicates moderate to severe mucositis. Following visual scoring, a photograph was taken of each animal's mucosa using a standardized technique. At the conclusion of the experiment, all film was developed and the photographs randomly numbered. At least two independent trained observers graded the photographs in blinded fashion using the above-described scale (blinded scoring). Results of the mucositis scores are graphically illustrated in FIG. 1.
The animal study described in Example 2 was then repeated with an identical protocol but with modified ADP-ribose doses. The groups in this study were treated with water (control), ADP-ribose at 100 μg/ml in water (Compound F), ADP-ribose at 45 μg/ml in water (Compound G), and ADP-ribose at 15 μg/ml in water (Compound H). […] Animals in the control group had mucositis scores ≧3 for approximately 10 days, whereas the ADP-ribose group had scores of approximately 3 for only 4 days.

Substance: 5′-adenosine-diphosphate ribose [ADP-ribose]
- severity of oral mucositis (average oral mucositis scores, FIG. 1) (Example 3, ADP-ribose at 100 μg/ml in water (Compound D group)): decreased the severity of oral mucositis
- severity of oral mucositis (average oral mucositis scores, FIG. 1) (Example 3, ADP-ribose at 500 μg/ml (Compound E group)): decreased the severity of oral mucositis
- effect on oral mucositis at 100 μg/ml compared with 500 μg/ml (Example 3, FIG. 1, comparison of the two ADP-ribose concentrations): superior to that of ADP-ribose at 500 μg/ml
- healing of oral mucositis (Example 4, Animal Study II, FIG. 2, ADP-ribose at a 45 μg/ml dose (Compound G)): maximum healing of oral mucositis that was statistically significant
- time with mucositis scores of approximately 3 (Example 4, Animal Study II, FIG. 2, ADP-ribose group, control group had scores ≧3 for approximately 10 days): 4 days
- healing of ulcers associated with mucositis (mucositis score ≧3) relative to the control (Example 4, Animal Study II, FIG. 2, ADP-ribose treatment groups (100, 45, 15 μg/ml in water)): healed faster
